# Test results published in patent US20240182445A1 (ONO PHARMACEUTICAL CO., LTD., priority 2019, published 2024).
# Target: T1, human TREK-1 (Homo sapiens, UniProt O95069)
# T1 construct: expressed in transfected cells
# T1 sequence (O95069 1-426): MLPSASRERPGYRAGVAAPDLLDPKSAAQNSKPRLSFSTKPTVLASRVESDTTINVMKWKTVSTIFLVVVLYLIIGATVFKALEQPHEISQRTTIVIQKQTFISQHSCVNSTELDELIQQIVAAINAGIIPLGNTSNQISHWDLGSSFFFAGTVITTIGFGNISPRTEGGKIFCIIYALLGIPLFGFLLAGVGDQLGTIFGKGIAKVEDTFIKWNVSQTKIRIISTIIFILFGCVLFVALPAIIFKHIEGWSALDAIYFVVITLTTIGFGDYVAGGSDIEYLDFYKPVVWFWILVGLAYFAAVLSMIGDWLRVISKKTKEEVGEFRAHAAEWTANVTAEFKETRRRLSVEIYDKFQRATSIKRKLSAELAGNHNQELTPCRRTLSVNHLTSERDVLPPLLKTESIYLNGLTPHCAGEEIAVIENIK
# Assay: TREK-1 Thallium (Tl+) flux assay, Method 1
# Type: cell-based
# Conditions: TREK-1 Thallium (Tl+) flux assay, Method 1
# Summary of the method: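 CHO-K1 cells stably expressing human TREK-1, loaded with Thallos dye, received compound or 0.3% DMSO vehicle for 10 min before thallium stimulus buffer. ΔRatio is fluorescence at 25 s after thallium addition over mean pre-addition fluorescence; % inhibition calculated from it.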
row,IC50,SMILES
1,5310 nM,"COc1c(F)cc(-c2cnc(NC(=O)c3c(Cl)cnn3C3CCN(C(C)=O)CC3)c(C)c2)cc1F [Compound 428, 1-(1-acetylpiperidin-4-yl)-4-chloro-N-(5-(3,5-difluoro-4-methoxyphenyl)-3-methylpyridin-2-yl)-1H-pyrazole-5-carboxamide]"
2,2670 nM,"CCc1cc(-c2cnc(NC(=O)c3c(Cl)cnn3C3CCN(C(=O)OC(C)(C)C)CC3)c(C)c2)ccc1OC [Compound 408, tert-butyl 4-(4-chloro-5-((5-(3-ethyl-4-methoxyphenyl)-3-methylpyridin-2-yl)carbamoyl)-1H-pyrazol-1-yl)piperidine-1-carboxylate]"

# Same assay, conditions: TREK-1 Thallium (Tl+) flux assay; no *^12 (Method 2) mark on these rows
row,IC50,SMILES
1,430 nM,"CC(=O)N1CCC[C@H](Cn2ncc(Cl)c2C(=O)Nc2ncc(C#Cc3ccccc3)cc2F)C1 [Compound 262, (S)-1-((1-acetylpiperidin-3-yl)methyl)-4-chloro-N-(3-fluoro-5-(phenylethynyl)pyridin-2-yl)-1H-pyrazole-5-carboxamide]"
2,740 nM,"COc1ccc(-c2cnc(NC(=O)c3c(Cl)cnn3C3CCN(C(=O)OC(C)(C)C)CC3)c(C)c2)cc1OC [Compound 384, tert-butyl 4-(4-chloro-5-((5-(3,4-dimethoxyphenyl)-3-methylpyridin-2-yl)carbamoyl)-1H-pyrazol-1-yl)piperidine-1-carboxylate]"
3,320 nM,"Cc1cc(-c2cnn(-c3ccc(F)cc3)c2)cnc1NC(=O)c1c(Cl)cnn1C[C@@H]1CCOC1 [Compound 379, (S)-4-chloro-N-(5-(1-(4-fluorophenyl)-1H-pyrazol-4-yl)-3-methylpyridin-2-yl)-1-((tetrahydrofuran-3-yl)methyl)-1H-pyrazole-5-carboxamide]"
4,300 nM,"Cc1cc(C#Cc2ccc(F)cc2)cnc1NC(=O)c1c(Cl)cnn1[C@H]1C[C@H](NC(=O)C2CC2)C1 [Compound 198, 4-chloro-1-(trans-3-(cyclopropanecarboxamido)cyclobutyl)-N-(5-((4-fluorophenyl)ethynyl)-3-methylpyridin-2-yl)-1H-pyrazole-5-carboxamide]"
5,450 nM,"Cc1cc(C#Cc2ccccc2)cnc1NC(=O)c1c(Cl)cnn1CC1(C#N)CC1 [Compound 267, 4-chloro-1-((1-cyanocyclopropyl)methyl)-N-(3-methyl-5-(phenylethynyl)pyridin-2-yl)-1H-pyrazole-5-carboxamide]"
6,350 nM,"Cc1cc(C#Cc2ccccc2)cnc1NC(=O)c1c(Cl)cnn1CC1CCN(C(=O)C(C)C)CC1(F)F (centres unmarked) [Compound 231, 4-chloro-1-((3,3-difluoro-1-isobutyrylpiperidin-4-yl)methyl)-N-(3-methyl-5-(phenylethynyl)pyridin-2-yl)-1H-pyrazole-5-carboxamide]"
7,390 nM,"N#CC1CC(n2ncc(Cl)c2C(=O)Nc2c(F)cc(C#Cc3ccccc3)cc2F)C1 (centres unmarked) [Compound 245, 4-chloro-1-(3-cyanocyclobutyl)-N-(2,6-difluoro-4-(phenylethynyl)phenyl)-1H-pyrazole-5-carboxamide]"

# Same assay, conditions: TREK-1 Thallium (Tl+) flux assay; values without footnote *12 are Method 1
row,IC50,SMILES
1,180 nM,"CCNC(=O)N1CCC(n2ncc(Cl)c2C(=O)Nc2ncc(C#Cc3ccc(F)cc3)cc2C)CC1 [Compound 92, 4-(4-chloro-5-((5-((4-fluorophenyl)ethynyl)-3-methylpyridin-2-yl)carbamoyl)-1H-pyrazol-1-yl)-N-ethylpiperidine-1-carboxamide]"
2,150 nM,"CCC(=O)N1CCC(n2ncc(Cl)c2C(=O)Nc2ncc(C#Cc3cccs3)cc2F)CC1 [Compound 67, 4-chloro-N-(3-fluoro-5-(thiophen-2-ylethynyl)pyridin-2-yl)-1-(1-propionylpiperidin-4-yl)-1H-pyrazole-5-carboxamide]"
3,230 nM,"CC(C)C(=O)N1CCOC(Cn2ncc(Cl)c2C(=O)Nc2ncc(C#Cc3ccccc3)cc2F)C1 (centres unmarked) [Compound 145, 4-chloro-N-(3-fluoro-5-(phenylethynyl)pyridin-2-yl)-1-((4-isobutyrylmorpholin-2-yl)methyl)-1H-pyrazole-5-carboxamide]"
4,200 nM,CC(C)C(=O)N[C@H]1CC[C@H](n2ncc(Cl)c2C(=O)Nc2ncc(C#Cc3ccccc3)cc2F)CC1 [Compound 117]
5,190 nM,"CC(=O)N1CCOC(Cn2ncc(Cl)c2C(=O)Nc2ncc(C#Cc3ccccc3)cc2C)C1 (centres unmarked) [Compound 105, 1-((4-acetylmorpholin-2-yl)methyl)-4-chloro-N-(3-methyl-5-(phenylethynyl)pyridin-2-yl)-1H-pyrazole-5-carboxamide]"
6,270 nM,"CC(=O)N1CCCC(Cn2ncc(Cl)c2C(=O)Nc2ncc(C#Cc3ccccc3)cc2F)C1 (centres unmarked) [Compound 177, 1-((1-acetylpiperidin-3-yl)methyl)-4-chloro-N-(3-fluoro-5-(phenylethynyl)pyridin-2-yl)-1H-pyrazole-5-carboxamide]"
7,240 nM,"CC(=O)N1CCC(CCn2ncc(Cl)c2C(=O)Nc2ncc(C#Cc3ccccc3)cc2C)CC1 [Compound 153, 1-(2-(1-acetylpiperidin-4-yl)ethyl)-4-chloro-N-(3-methyl-5-(phenylethynyl)pyridin-2-yl)-1H-pyrazole-5-carboxamide]"
8,200 nM,"Cc1cc(C#Cc2ccc(F)cc2)cnc1NC(=O)c1c(Cl)cnn1C1CC2(C1)CN(C(=O)C1CC1)C2 [Compound 115, 4-chloro-1-(2-(cyclopropanecarbonyl)-2-azaspiro[3.3]heptan-6-yl)-N-(5-((4-fluorophenyl)ethynyl)-3-methylpyridin-2-yl)-1H-pyrazole-5-carboxamide]"
9,250 nM,"CC(=O)N1CCC(n2ncc(Cl)c2C(=O)Nc2ncc(C#Cc3ccccc3F)cc2C)C(F)C1 (stereo in doubt) [Compound 159, 1-((3R,4R)-1-acetyl-3-fluoropiperidin-4-yl)-4-chloro-N-(5-((2-fluorophenyl)ethynyl)-3-methylpyridin-2-yl)-1H-pyrazole-5-carboxamide]"
10,240 nM,"Cc1cc(C#Cc2ccccc2)cnc1NC(=O)c1c(Cl)cnn1C[C@H]1CCOC1 [Compound 147, (R)-4-chloro-N-(3-methyl-5-(phenylethynyl)pyridin-2-yl)-1-((tetrahydrofuran-3-yl)methyl)-1H-pyrazole-5-carboxamide]"
11,220 nM,"CC(C)(C)OC(=O)N1CCC(F)(Cn2ncc(Cl)c2C(=O)Nc2ncc(C#Cc3ccccc3)cc2F)CC1 [Compound 134, tert-butyl 4-((4-chloro-5-((3-fluoro-5-(phenylethynyl)pyridin-2-yl)carbamoyl)-1H-pyrazol-1-yl)methyl)-4-fluoropiperidine-1-carboxylate]"
12,130 nM,"CCC(=O)N1CCC(n2ncc(Cl)c2C(=O)Nc2ncc(C#Cc3ccccc3)cc2C)CC1 [Compound 41, 4-chloro-N-(3-methyl-5-(phenylethynyl)pyridin-2-yl)-1-(1-propionylpiperidin-4-yl)-1H-pyrazole-5-carboxamide]"

# Same assay, conditions: read-out: Tl^+ Assay % inhibition at 30 uM (Minus value indicates activation of TREK-1); at 30 uM; CHO-K1 cells stably expressing human TREK-1; minus = activation
row,inhibition at 30 µM,SMILES
1,-108%,"Cc1cc(C#Cc2ccc(F)cc2)cnc1NC(=O)c1nn(CCC2CCN(C(=O)C(C)C)CC2)cc1Cl [Compound 446, 4-chloro-N-(5-((4-fluorophenyl)ethynyl)-3-methylpyridin-2-yl)-1-(2-(1-isobutyrylpiperidin-4-yl)ethyl)-1H-pyrazole-3-carboxamide]"
2,-118%,"CC(=O)N1CCC(CCn2cc(Cl)c(C(=O)Nc3ncc(C#Cc4ccc(F)cc4)cc3C)n2)CC1 [Compound 442, 1-(2-(1-acetylpiperidin-4-yl)ethyl)-4-chloro-N-(5-((4-fluorophenyl)ethynyl)-3-methylpyridin-2-yl)-1H-pyrazole-3-carboxamide]"
